Entries after “also recorded” stand apart in the source; their conditions may differ.
Tests used:
[1] = target: sphingosine kinase-1/SphK1 (Homo sapiens, UniProt Q9NYA1); details: cited from earlier work
human lung fibroblasts [2] = assay: TGF-β-mediated differentiation of human lung fibroblasts, PF-543; assay type: cell-based
From the text: TGF-β-induced fibroblast differentiation was characterized to analyze the expression of fibronectin and α-SMA. […] Additionally, compared with the control mouse lung fibroblast (from wild-type mice), TGF-β-induced fibroblast differentiation and expression of YAP1 were dramatically lower in the lung fibroblast isolated from SphK1^−/− mice. Accordingly, selective inhibition of SphK1 is useful in the prevention and treatment of bleomycin-induced pulmonary fibrosis.

[3] = system: adult mice exposed to oxygen (75%); assay: Hyperoxia-induced lung injury in adult mice; assay type: in vivo; details: 5 mg/kg/d PF-543 x 2 days prior to oxygen (75%)
[4] = system: bleomycin-challenged C57BL/6J mice; assay: Bleomycin-induced pulmonary fibrosis in mice treated with PF-543; assay type: in vivo; details: PF-543 i.p. 5 mg/kg twice per week
Protocol: In Vivo Studies. In this analysis, 8 week-old, wild-type, C57BL/6J mice were treated with 1.5 U/kg bleomycin.

HLMVECs = assay: Hyperoxia-induced S1P generation, p47phox activation and ROS generation in HLMVECs, PF-543; assay type: cell-based, human
From the text: HLMVECs were transfected with p47-roGFP prior to exposure to hyperoxia.

[5] = system: newborn mice exposed to hyperoxia (75%); assay: Hyperoxia-induced lung injury in newborn mice; assay type: in vivo; details: PF-543 20 mg/kg/day
From the text: Therefore, PF-543 protected the lungs of the newborn mice from oxygen injury.

[6] = cited from earlier work
S1P receptors = details: cited from earlier work
irradiated C57B1/6 mice = details: 20 Gy thoracic irradiation, cited from earlier work
rats exposed to hypoxia = details: SKI-II 10 mg/kg intraperitoneally, once every other day for 3.5 weeks; vs vehicle; cited from earlier work
human lung fibroblasts [7] = details: SKI-II; cited from earlier work
[8] = system: human lung microvascular endothelial cells (HLMVECs); details: SKI-II, cited from earlier work
[9] = system: bleomycin-challenged mice; details: SKI-II eight days post-bleomycin challenge; cited from earlier work
[10] = PF-543 1-5 μM, 1 hour pretreatment, TGF-β 5 ng/ml, 48 hours
[11] = 0.375 mg/kg myriocin p.o. 3x/week, 0.375 mg/kg

sphingosine kinase-1/SphK1, sequence (Q9NYA1 whole entry): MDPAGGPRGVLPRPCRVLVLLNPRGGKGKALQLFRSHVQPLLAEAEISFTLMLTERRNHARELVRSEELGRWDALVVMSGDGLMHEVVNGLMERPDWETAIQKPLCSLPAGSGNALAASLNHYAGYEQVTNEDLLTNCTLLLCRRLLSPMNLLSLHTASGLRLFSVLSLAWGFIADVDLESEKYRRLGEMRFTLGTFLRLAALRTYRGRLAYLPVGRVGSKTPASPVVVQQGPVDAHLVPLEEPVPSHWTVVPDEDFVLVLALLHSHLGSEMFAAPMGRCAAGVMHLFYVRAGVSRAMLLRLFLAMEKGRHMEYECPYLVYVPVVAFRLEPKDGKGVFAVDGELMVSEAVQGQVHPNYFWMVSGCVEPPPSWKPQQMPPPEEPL

Which results are given for `CCCCCCCCCCCCCCC[C@@H](O)C(C)N` (stereo partly shown) [Compound 55-21]?
IC50 [1]: 7.1 µM; selectivity for SphK1 over SphK2 [1]: ~108 fold

For `CCCCCCCCCCCCc1ccc(C(=O)NC2(C(=N)N)CC2)cc1` [Compound 1], which “selectivity for SphK1 over SphK2” value [1] is on record?
The value was 5 fold.

Which “selectivity for SphK1 over SphK2” value [1] does the source give for `N=C(N)[C@@H]1CCCN1C(=O)c1ccc(-c2nc(-c3cccc(CCC4CCCCC4)c3)co2)cc1` [Compound 5] here?
The value was 180 fold.

With `Cc1cc(CS(=O)(=O)c2ccccc2)cc(OCc2ccc(CN3CCC[C@@H]3CO)cc2)c1` [PF-543, [(2R)-1-[[4-[[3-(benzenesulfonylmethyl)-5-methylphenoxy]methyl]phenyl]methyl]pyrrolidin-2-yl] methanol] as the compound, how does the “TGF-β-induced expression of fibronectin and α-SMA” value (human lung fibroblasts [2]; [10]) read?
The value was “decreased; also recorded: dramatically inhibited”.

And the “TGF-β-mediated fibroblast differentiation to myofibroblasts” value (human lung fibroblasts [2]; [10])?
Its value is “attenuated; also recorded: dramatically inhibited”.

And the “TGF-β-induced expression of YAP1” value (human lung fibroblasts [2]; PF-543 pretreatment, TGF-β)?
Its value is “attenuated; also recorded: dramatically inhibited”.

And the “BAL fluid total protein concentration” value [3]?
The value was “decreases; also recorded: reduced”.

And the “BAL inflammatory cell infiltrate (WBC count)” value [3]?
The value was “decreases; also recorded: reduced”.

And the hyperoxia-induced lung injury [3]?
Its hyperoxia-induced lung injury is “attenuated”.

And the “lung inflammatory fluid infiltration (lung histology)” value [3]?
The value was “reduced”.

And the “protection against lung injury and pulmonary fibrosis” value ([4]; 1.5 U/kg bleomycin, day 7 to 21 post-bleomycin, 5 mg/kg)?
The value was “ameliorates; also recorded: partly protected”.

And the “TGF-β levels in bronchoalveolar lavage (BAL) fluids” value ([4]; day 7 to 21 post-bleomycin)?
Its value is “decreased”.

What about the “expression of α-SMA and fibronectin in lung tissues” value ([4]; day 7 to 21 post-bleomycin) of the same compound?
Its value is “decreased”.

What about the total collagen deposition ([4]; day 7 to 21 post-bleomycin, vs bleomycin without PF-543) of the same compound?
The total collagen deposition was “decreased”.

What about the “Ashcroft's score” value ([4]; day 21 to 42 post-bleomycin) of the same compound?
Its value is “decrease”.

And the collagen deposition ([4]; day 21 to 42 post-bleomycin)?
Its collagen deposition is “decrease”.

And the “resolution of pulmonary fibrosis” value ([4]; day 21 to 42 post-bleomycin)?
Its value is “enhanced resolution”.

And the “attenuation of hyperoxia-mediated [32P]S1P generation” value (HLMVECs)?
The value was > 80%.

What about the “hyperoxia-induced ROS generation” value (HLMVECs) of the same compound?
Its value is “attenuates; also recorded: inhibited”.

And the “exogenous S1P-mediated translocation of p47phox to cell periphery / activation” value (HLMVECs; exogenous S1P instead of hyperoxia)?
The value was “not affected; also recorded: did not affect”.

And the “hyperoxia-induced aggregation and stimulation of p47phox biosensor protein (p47-roGFP)” value (HLMVECs; live cell imaging, HLMVECs transfected with p47-roGFP)?
The value was “suppressed”.

What about the “hyperoxia-induced p47phox translocation to cell periphery / activation of p47phox” value (HLMVECs; pre-treated with PF-543) of the same compound?
Its value is “inhibited; also recorded: attenuated”.

What about the lung structure [5] of the same compound?
Its lung structure is “well preserved”.

What about the cell permeability [6] of the same compound?
The cell permeability was “cell-permeable”.

What about the “affinity toward S1P receptors” value (S1P receptors) of the same compound?
Its value is “does not exhibit any affinity”.

With `CCCCCCC(=O)CCCCCC/C=C/C[C@@H](O)[C@H](O)[C@@](N)(CO)C(=O)O` [myriocin] as the compound, how does the “radiation-induced pulmonary fibrosis (onset of RIF)” value (irradiated C57B1/6 mice; [11]) read?
The value was “decreases; also recorded: delays”.

What about the radiation-induced pulmonary inflammation (irradiated C57B1/6 mice; [11]) of the same compound?
The radiation-induced pulmonary inflammation was “decreases; also recorded: reduces”.

What about the “animal lifespan (survival)” value (irradiated C57B1/6 mice; 0.375 mg/kg myriocin p.o. 3x/week) of the same compound?
The value was “increased”.

And the “SphK2 mRNA levels and protein expression” value (irradiated C57B1/6 mice; myriocin)?
The value was “Neither parameter is affected”.

What about the “expression of markers of fibrogenesis (collagen, α-SMA) in the lung” value (irradiated C57B1/6 mice; myriocin) of the same compound?
Its value is “decreased”.

And the “radiation-increased SphK1 mRNA levels and SphK1 protein expression” value (irradiated C57B1/6 mice; myriocin)?
Its value is “decreased”.

And the “radiation-induced increase in total SphK activity in lung tissue” value (irradiated C57B1/6 mice; myriocin)?
The value was “hinder; also recorded: inhibition”.

For `N=C(N)C1(C(=O)NCCCCCCCCCCOCC2CCCCC2)CC1` [Compound 4], which “selectivity for SphK1 over SphK2” value [1] is on record?
Its value is 470 fold.

Which IC50 [1] does the source give for `CCCCCCCCCCCCCC#CC(=O)C1COC(C)(C)N1C(=O)OC(C)(C)C` (stereo not shown) [SKI 5C] here?
The IC50 was 3.3 µM.

What does the source list for `CCCCCCCCCCCCc1ccc(NC(=O)C2(C(=N)N)CC2)cc1` [Compound 2]?
Ki [1]: 0.3 µM; selectivity for SphK1 over SphK2 [1]: 40 fold

What does the source list for `Oc1ccc(Nc2nc(-c3ccc(Cl)cc3)cs2)cc1` [SKI-II, 4-[[4-(4-chlorophenyl)-2-thiazolyl]amino]-phenol]?
development of HPH (RVSP, RVH, pulmonary vascular remodeling) (rats exposed to hypoxia): prevents; S1P generation and TGF-β-mediated signal transduction (human lung fibroblasts [7]): attenuates; ROS production under hyperoxia (DCFDA fluorescence) ([8]; 24 hours before hyperoxia (95% O2) for 3 hours): blocked; hyperoxia-induced S1P generation [8]: attenuates; bleomycin-induced mortality [9]: reduces; bleomycin-induced pulmonary fibrosis [9]: reduces
